For experiment [1], the target named is T1, M. thermoresistibile OtsA R384E (Mycolicibacterium thermoresistibile, UniProt G7CGT2, R384E).
T1 sequence (G7CGT2 1-486 R384E): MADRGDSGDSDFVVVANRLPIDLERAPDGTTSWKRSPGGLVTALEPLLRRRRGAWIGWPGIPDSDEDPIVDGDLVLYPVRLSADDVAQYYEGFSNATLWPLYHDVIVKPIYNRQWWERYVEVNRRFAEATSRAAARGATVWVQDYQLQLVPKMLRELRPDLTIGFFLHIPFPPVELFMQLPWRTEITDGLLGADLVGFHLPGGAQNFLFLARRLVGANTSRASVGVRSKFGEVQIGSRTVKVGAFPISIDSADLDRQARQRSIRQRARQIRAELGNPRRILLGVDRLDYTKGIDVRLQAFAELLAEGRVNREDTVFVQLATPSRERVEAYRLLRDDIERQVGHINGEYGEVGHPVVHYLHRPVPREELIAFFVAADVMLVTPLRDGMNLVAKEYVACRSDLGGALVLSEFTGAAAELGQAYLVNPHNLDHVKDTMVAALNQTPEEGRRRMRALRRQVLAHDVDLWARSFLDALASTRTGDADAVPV
Put plainly: Effect of allosteric regulators on OtsA activity (R384E). It is filed as biochemical, Mycobacterium thermoresistibile. On the procedure: (§1) . All reagents used were obtained from Sigma-Aldrich. The enzymatic reactions (200-μl reaction mixture) were performed at 37°C, and the reaction mixtures contained 50 mM Tris (pH 7.5), 200 mM NaCl, 10 mM MgCl2, 50 mM KCl, 0.3 mM NADH, 2.5 mM phosphoenolpyruvate (PEP), 10 units of pyruvate kinase-lactate dehydrogenase, 0.1 μM enzyme, and various concentrations of G6P and NDP-glucose to determine kinetic parameters.
(§2) […]. All experiments were performed in triplicate in a PHERAstar plate reader (BMG Labtech), and data were analyzed with Prism 5 (GraphPad Software).

Experiment [2] concerns the target T2, M. thermoresistibile OtsA R213E (Mycolicibacterium thermoresistibile, UniProt G7CGT2, R213E).
T2 sequence (G7CGT2 1-486 R213E): T1 sequence (G7CGT2 1-486 R384E)
Briefly: Effect of allosteric regulators on OtsA activity (R213E). In kind it is biochemical, Mycobacterium thermoresistibile. The procedure:
as §1, §2

Molecules are shown by their SMILES.

On to `O=C(O)C(CO)OP(=O)(O)O` (centres unmarked) [2PG, 2-phosphoglyceric acid], for which the IC50 is under 100 mM in experiment [1] and 12 mM in experiment [2].

These data come from paper PMC6879718, “Mycobacterial OtsA Structures Unveil Substrate Preference Mechanism and Allosteric Regulation by 2-Oxoglutarate and 2-Phosphoglycerate” (mBio, 2019).
